Marks after values point to notes of the source that are not given here.
How the values were obtained:
[1] = tested on: IL-5 production of spleen cells; experiment: IL-5 production of spleen cells stimulated with anti-CD3 antibody, from gel-treated mice (Experiment 16); assay type: in vivo, NC/Nga mice; settings: for production level of IL-5 of spleen cells stimulated with the anti-CD3 antibody: compared to mice applied with gel prepared by adding refined water (Experiment group 1); for Content of IL-5: supernatant of spleen cells stimulated with anti-CD3 antibody, picryl chloride-sensitized mice applied with gel
Protocol: On Friday of the 6th week of the induction (46th day after initiating the application), all the mice were sacrificed, followed by isolating their spleens and collecting spleen cells in usual manner. […] To each well 2 μg/mL of “Purified Mouse CD3ε Monoclonal Antibody”, a product name of an anti-CD3 antibody, commercialized by Cosmo Bio Co., Ltd., Tokyo, Japan, was added, and the cells were incubated at 37° C. for three days in a 5% v/v CO2 incubator, followed by assaying the levels of cytokines in each supernatant thereof.
(§1) The results are in Table 19 in parallel.

[2] = tested on: picryl chloride-sensitized mice; experiment: Picryl chloride-sensitized mice atopic dermatitis, skin score (Experiment 16); assay type: in vivo, NC/Nga mice; settings: for Skin score, 21 days after the day of sensitizing with picryl chloride: gel on dorsal skin twice a day (ANO 14 mg/mL, AN or IN 13 mg/mL, prednisolone 6.7 mg/mL from 3rd induction week), day 21; for Skin score, 24 days after the day of sensitizing with picryl chloride / Skin score, 28 days after the day of sensitizing with picryl chloride / Skin score, 31 days after the day of sensitizing with picryl chloride / Skin score, 35 days after the day of sensitizing with picryl chloride / Skin score, 39 days after the day of sensitizing with picryl chloride / Skin score, 42 days after the day of sensitizing with picryl chloride / Skin score, 45 days after the day of sensitizing with picryl chloride: gel on dorsal skin twice a day (ANO 14 mg/mL, AN or IN 13 mg/mL, prednisolone 6.7 mg/mL); for Skin score, 24 days after the day of sensitizing with picryl chloride: day 24; for Skin score, 28 days after the day of sensitizing with picryl chloride: day 28; for Skin score, 31 days after the day of sensitizing with picryl chloride: day 31; for Skin score, 35 days after the day of sensitizing with picryl chloride: day 35; for Skin score, 39 days after the day of sensitizing with picryl chloride: day 39; for Skin score, 42 days after the day of sensitizing with picryl chloride: day 42; for Skin score, 45 days after the day of sensitizing with picryl chloride: day 45
Source text: as §1

KK-Ay mice = KK-Ay mice kidney inflammation: body weight, kidney ratio, blood glucose, HbA1c, renal glomerulus consolidation (Experiment 14); assay type: in vivo; settings: 10 weeks; for Percentage of subject with renal glomerulus solidification (++): (++) = at least 50% consolidation; for Blood glucose level: fasted 16 hours
Source text: Fifty KK-Ay mice, 5-week-old, male, commercialized by Japan Crea Co., Tokyo, Japan, were preliminary bred for one week on CE-2 feed commercialized by Japan Crea Co., Tokyo, Japan, measured for body weight and blood glucose level in blood samples collected from their tail veins, and randomly grouped into five groups, ten heads each, after balancing each measured value. One of the five groups was made into a control group and the mice of the group were allowed to take water freely and bred for 10 weeks (Experiment group 1). […] Throughout the periods of preliminary breeding and testing, the mice were bred while freely allowing them to take CE-2 feed at 22±2° C. under a light-dark cycle of 12 hours (lighting: from 7:00 to 19:00). At the termination of the test, the mice were evaluated based on their body weight, weight ratio of kidney, blood glucose level, hemoglobin A1c (HbA1c), and pathological findings of renal disorder by autopsy, and the percentage of mice with at least 50% consolidation (++) of renal glomerulus against the total glomus is shown in Table 15. The weight ratio of kidney was determined by dividing the weight of kidney by the body weight. The blood glucose level, HbA1c, and denatured score of renal glomerulus were determined by the following method.
At the termination of the test, the mice were fasted for 16 hours prior to autopsy and collected blood from their postcava for measurement of fasting glucose level. The blood glucose level was determined by “GLUCOSE CII-TEST WAKO”, a product name of a commercialized reagent for blood glucose level commercialized by Wako Pure Chemical Industries Ltd., Tokyo, Japan.
At the termination of the test, the mice were fasted for 16 hours before autopsy and collected blood from their postcava for measurement of interdigestive HbA1c level. The measurement was asked FALCO biosystems Ltd., Kyoto, Japan, a privately-owned clinical inspection institute.
At the autopsy, each mouse was collected his kidney which was then fixed with neutral buffered formalin, prepared into a pathologic tissue section in usual manner, and stained with hematoxylin-eosin staining (H-E staining) and PAS staining. For the stained pathologic tissue section of each mouse, they were compared with that of the control and the pathological findings by microscopic observation were judged based on the following criteria and scored for an index of the denaturation of renal disorder.
The degree of renal disorder was judged based on the degree of consolidation of renal glomerulus: The degree was judged based on the four grades; (++), meaning that at least 50% consolidation of renal glomerulus is observed against the total glomus; (+), meaning that at least 25% but below 50% consolidation of renal glomerulus is observed against the total glomus; (±), meaning that less than 25% consolidation of renal glomerulus is observed against the total glomus; and (−), meaning that no consolidation of renal glomerulus is observed against the total glomus. The pathological findings of kidney was judged based on an evaluation criterion for pathologic tissue (see, for example, the lines 12 to 21 at page 862 of “American Journal of Pathology”, Vol. 160, No. 3, pp. 861-867, 2002, by Andrea Hartner et al.).

SMILES | production level of IL-5 of spleen cells stimulated with the anti-CD3 antibody [1] | Content of IL-5 [1] [ng/mL] | Skin score, 21 days after the day of sensitizing with picryl chloride [2] | Skin score, 24 days after the day of sensitizing with picryl chloride [2] | Skin score, 28 days after the day of sensitizing with picryl chloride [2] | Skin score, 31 days after the day of sensitizing with picryl chloride [2] | Skin score, 35 days after the day of sensitizing with picryl chloride [2] | Skin score, 39 days after the day of sensitizing with picryl chloride [2] | Skin score, 42 days after the day of sensitizing with picryl chloride [2] | Skin score, 45 days after the day of sensitizing with picryl chloride [2] | HbA1c value (KK-Ay mice; 94 mg/kg body weight/day) [%] | Percentage of subject with renal glomerulus solidification (++) (KK-Ay mice; 94 mg/kg body weight/day) [%] | Blood glucose level (KK-Ay mice; 94 mg/kg body weight/day) [mg/dL] | further results
Nc1ncnc2c1ncn2[C@@H]1O[C@H](CO)[C@@H](O)[C@H]1O [AN, adenosine] | showed no difference | 225 | 0.50 | 0.50 | 2.75 | 3.55 | 5.56 | 5.78 | 6.22 | 5.50 | 6.72 | 100 | 342 | –
Nc1c2ncn([C@@H]3O[C@H](CO)[C@@H](O)[C@H]3O)c2nc[n+]1[O-] [ANO, adenosine N1-oxide] | tended to decrease | 157 | 0.75 | 1.00 | 2.25 | 3.38 | 4.50 | 3.58* | 4.38* | 3.63* | – | – | – | recovery of skin wounds in the inflammation-induced part ([2]; picryl chloride-sensitized NC/Nga mice, gel application): cure/improvement of wounds induced by inflammation was observed; HbA1c value (KK-Ay mice; 30 mg/kg body weight/day): 6.79%; Percentage of subject with renal glomerulus solidification (++) (KK-Ay mice; 30 mg/kg body weight/day): 50%; Blood glucose level (KK-Ay mice; 30 mg/kg body weight/day): 304 mg/dL; HbA1c value (KK-Ay mice; 100 mg/kg body weight/day, 100 mg/kg/day): 5.40* %; Percentage of subject with renal glomerulus solidification (++) (KK-Ay mice; 100 mg/kg body weight/day): 30%; Blood glucose level (KK-Ay mice; 100 mg/kg body weight/day): 305 mg/dL; HbA1c value (KK-Ay mice; 100 mg/kg body weight/day, listed as adenosine N1-oxide, 100 mg/kg/day): 5.40%
OC[C@H]1O[C@@H](n2cnc3c(O)ncnc32)[C@H](O)[C@@H]1O [IN, inosine] | showed no difference | 209 | 0.50 | 0.50 | 2.50 | 3.22 | 5.20 | 5.66 | 6.00 | 5.43 | 6.55 | 80 | 340 | –

— patent US9757408B2 (Hayashibara Co., Ltd., priority 2010, dated 2017)
